From patent US20200046860A1, “Systems and Methods for the Detection of Hydroxychloroquine-Mediated Cardiotoxicity” (Mayo Foundation for Medical Education and Research, priority 2018, published 2020)

What was measured:
cardiac myocytes = experiment: Endomyocardial biopsy of patient on hydroxychloroquine; type: in vivo, human; details: same patient
Protocol: An endomyocardial biopsy was performed on the same subject. […] Amyloid was not present on special stains, including sulfated Alcian blue stain and Congo red stains (C of FIG. 4 and D of FIG. 4, respectively, ×100 original magnification).

Description for heart: Planar scintigraphy (D of FIG. 3) of ^99mTc-PYP uptake allows count comparison between the heart (right) with the contralateral chest (left) on 3-hour uptake anterior planar imaging.

## CCN(CCO)CCCC(C)Nc1ccnc2cc(Cl)ccc12 (stereo not drawn) [hydroxychloroquine]
Cardiac myocytes; light microscopy
  hematoxylin and eosin-stained section finding: marked sarcoplasmic vacuolization of cardiac myocytes
Cardiac myocytes
  toluidine blue-stained thick section finding: dense sarcoplasmic inclusions
Cardiac myocytes; in keeping with hydroxychloroquine-mediated cardiotoxicity
  electron microscopy finding: presence of myelinoid and curvilinear bodies
Cardiac myocytes; sulfated Alcian blue and Congo red stains
  amyloid on special stains: not present
heart; human, in vivo
  left ventricular wall finding on echocardiogram: concentric left ventricular wall thickening
heart; patient on hydroxychloroquine for 15 years, abnormal, most preserved at the apex
  global averaged longitudinal peak systolic strain: −10%
